Measured values from PubChem BioAssay (NCI).
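Where inhibition never reached the appropriate level, the endpoint shown equals the highest concentration tested. Otherwise, values were interpolated linearly from a five-concentration, 48-hour dose response in 96-well plates. At the GI50, growth is halved. Definition used: TGI = concentration required for complete inhibition of growth.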

Experiments:
Assay in all cases: inhibition of tumour cell growth, NCI panel, 48 h
786-0 renal = tested on: 786-0 renal
A498 renal = tested on: A498 renal
A549 NSCLC = tested on: A549 NSCLC
ACHN renal = tested on: ACHN renal
BT-549 breast = tested on: BT-549 breast
CAKI-1 renal = tested on: CAKI-1 renal
CCRF-CEM leukemia = tested on: CCRF-CEM leukemia
COLO 205 colon = tested on: COLO 205 colon
DU-145 prostate = tested on: DU-145 prostate
EKVX NSCLC = tested on: EKVX NSCLC
HCC-2998 colon = tested on: HCC-2998 colon
HCT-116 colon = tested on: HCT-116 colon
HCT-15 colon = tested on: HCT-15 colon
HL-60(TB) leukemia = tested on: HL-60(TB) leukemia
HOP-62 NSCLC = tested on: HOP-62 NSCLC
HOP-92 NSCLC = tested on: HOP-92 NSCLC
HS 578T breast = tested on: HS 578T breast
HT29 colon = tested on: HT29 colon
IGROV1 ovarian = tested on: IGROV1 ovarian
K-562 leukemia = tested on: K-562 leukemia
KM12 colon = tested on: KM12 colon
LOX IMVI melanoma = tested on: LOX IMVI melanoma
M14 melanoma = tested on: M14 melanoma
MALME-3M melanoma = tested on: MALME-3M melanoma
MCF7 breast = tested on: MCF7 breast
MDA-MB-231 breast = tested on: MDA-MB-231 breast
MDA-MB-435 = tested on: MDA-MB-435
MOLT-4 leukemia = tested on: MOLT-4 leukemia
NCI-H226 lung = tested on: NCI-H226 lung
NCI-H23 lung = tested on: NCI-H23 lung
NCI-H460 lung = tested on: NCI-H460 lung
NCI-H522 lung = tested on: NCI-H522 lung
NCI/ADR-RES ovarian = tested on: NCI/ADR-RES ovarian
OVCAR-3 ovarian = tested on: OVCAR-3 ovarian
OVCAR-4 ovarian = tested on: OVCAR-4 ovarian
OVCAR-5 ovarian = tested on: OVCAR-5 ovarian
OVCAR-8 ovarian = tested on: OVCAR-8 ovarian
PC-3 prostate = tested on: PC-3 prostate
RPMI-8226 leukemia = tested on: RPMI-8226 leukemia
RXF 393 renal = tested on: RXF 393 renal
SF-268 CNS = tested on: SF-268 CNS
SF-295 CNS = tested on: SF-295 CNS
SF-539 CNS = tested on: SF-539 CNS
SK-MEL-2 melanoma = tested on: SK-MEL-2 melanoma
SK-MEL-28 melanoma = tested on: SK-MEL-28 melanoma
SK-MEL-5 melanoma = tested on: SK-MEL-5 melanoma
SK-OV-3 ovarian = tested on: SK-OV-3 ovarian
SN12C renal = tested on: SN12C renal
SNB-19 CNS = tested on: SNB-19 CNS
SNB-75 CNS = tested on: SNB-75 CNS
SR leukemia = tested on: SR leukemia
SW-620 colon = tested on: SW-620 colon
T-47D breast = tested on: T-47D breast
TK-10 renal = tested on: TK-10 renal
U251 CNS = tested on: U251 CNS
UACC-257 melanoma = tested on: UACC-257 melanoma
UACC-62 melanoma = tested on: UACC-62 melanoma
UO-31 renal = tested on: UO-31 renal

Q: `O=C(NNc1nc2cc(F)ccc2n2cccc12)c1ccncn1` was tested. Which GI50 (786-0 renal) did it give?
A: 412 nM

Q: And the TGI (786-0 renal)?
A: > 15700 nM

Q: And the GI50 (A498 renal)?
A: 745 nM

Q: And the TGI (A498 renal)?
A: 3730 nM

Q: What about the GI50 (A549 NSCLC) of the same compound?
A: 253 nM

Q: What about the TGI (A549 NSCLC) of the same compound?
A: > 30000 nM

Q: And the GI50 (ACHN renal)?
A: 179 nM

Q: What about the TGI (ACHN renal) of the same compound?
A: > 30000 nM

Q: What about the GI50 (BT-549 breast) of the same compound?
A: 841 nM

Q: What about the TGI (BT-549 breast) of the same compound?
A: > 21300 nM

Q: And the GI50 (CAKI-1 renal)?
A: 295 nM

Q: And the TGI (CAKI-1 renal)?
A: > 30000 nM

Q: What about the GI50 (CCRF-CEM leukemia) of the same compound?
A: 32.7 nM

Q: And the TGI (CCRF-CEM leukemia)?
A: 428 nM

Q: And the GI50 (COLO 205 colon)?
A: 272 nM

Q: And the TGI (COLO 205 colon)?
A: > 13500 nM

Q: And the GI50 (DU-145 prostate)?
A: 348 nM

Q: And the TGI (DU-145 prostate)?
A: > 23600 nM

Q: What about the GI50 (EKVX NSCLC) of the same compound?
A: 234 nM

Q: What about the TGI (EKVX NSCLC) of the same compound?
A: > 16100 nM

Q: And the GI50 (HCC-2998 colon)?
A: 738 nM

Q: And the TGI (HCC-2998 colon)?
A: > 23100 nM

Q: What about the GI50 (HCT-116 colon) of the same compound?
A: 153 nM

Q: What about the TGI (HCT-116 colon) of the same compound?
A: > 11000 nM

Q: What about the GI50 (HCT-15 colon) of the same compound?
A: 70.4 nM

Q: And the TGI (HCT-15 colon)?
A: > 20200 nM

Q: What about the GI50 (HL-60(TB) leukemia) of the same compound?
A: 293 nM

Q: And the GI50 (HOP-62 NSCLC)?
A: 94.1 nM

Q: What about the TGI (HOP-62 NSCLC) of the same compound?
A: 9120 nM

Q: What about the GI50 (HOP-92 NSCLC) of the same compound?
A: 287 nM

Q: And the TGI (HOP-92 NSCLC)?
A: 11700 nM

Q: And the GI50 (HS 578T breast)?
A: 1810 nM

Q: What about the TGI (HS 578T breast) of the same compound?
A: > 24900 nM

Q: And the GI50 (HT29 colon)?
A: 354 nM

Q: What about the TGI (HT29 colon) of the same compound?
A: > 13500 nM

Q: And the GI50 (IGROV1 ovarian)?
A: 211 nM

Q: What about the TGI (IGROV1 ovarian) of the same compound?
A: > 30000 nM

Q: What about the GI50 (K-562 leukemia) of the same compound?
A: 176 nM

Q: And the TGI (K-562 leukemia)?
A: > 9890 nM

Q: What about the GI50 (KM12 colon) of the same compound?
A: 278 nM

Q: What about the TGI (KM12 colon) of the same compound?
A: > 22500 nM

Q: What about the GI50 (LOX IMVI melanoma) of the same compound?
A: 168 nM

Q: What about the TGI (LOX IMVI melanoma) of the same compound?
A: > 9230 nM

Q: What about the GI50 (M14 melanoma) of the same compound?
A: 255 nM

Q: And the TGI (M14 melanoma)?
A: > 11000 nM

Q: And the GI50 (MALME-3M melanoma)?
A: 910 nM

Q: What about the TGI (MALME-3M melanoma) of the same compound?
A: > 21200 nM

Q: And the GI50 (MCF7 breast)?
A: 270 nM

Q: What about the TGI (MCF7 breast) of the same compound?
A: > 15300 nM

Q: What about the GI50 (MDA-MB-231 breast) of the same compound?
A: 766 nM

Q: What about the TGI (MDA-MB-231 breast) of the same compound?
A: > 30000 nM

Q: And the GI50 (MDA-MB-435)?
A: 1170 nM

Q: What about the TGI (MDA-MB-435) of the same compound?
A: > 30000 nM

Q: And the GI50 (MOLT-4 leukemia)?
A: 109 nM

Q: What about the GI50 (NCI-H226 lung) of the same compound?
A: 548 nM

Q: What about the TGI (NCI-H226 lung) of the same compound?
A: 10300 nM

Q: And the GI50 (NCI-H23 lung)?
A: 437 nM

Q: And the TGI (NCI-H23 lung)?
A: > 30000 nM

Q: What about the GI50 (NCI-H460 lung) of the same compound?
A: 76.4 nM

Q: And the TGI (NCI-H460 lung)?
A: > 7440 nM

Q: What about the GI50 (NCI-H522 lung) of the same compound?
A: 429 nM

Q: What about the TGI (NCI-H522 lung) of the same compound?
A: > 6940 nM

Q: And the GI50 (NCI/ADR-RES ovarian)?
A: 242 nM

Q: What about the TGI (NCI/ADR-RES ovarian) of the same compound?
A: 9350 nM

Q: And the GI50 (OVCAR-3 ovarian)?
A: 191 nM

Q: And the TGI (OVCAR-3 ovarian)?
A: > 7020 nM

Q: And the GI50 (OVCAR-4 ovarian)?
A: 162 nM

Q: What about the TGI (OVCAR-4 ovarian) of the same compound?
A: > 8250 nM

Q: And the GI50 (OVCAR-5 ovarian)?
A: 1300 nM

Q: And the TGI (OVCAR-5 ovarian)?
A: > 30000 nM

Q: And the GI50 (OVCAR-8 ovarian)?
A: 277 nM

Q: What about the TGI (OVCAR-8 ovarian) of the same compound?
A: > 28400 nM

Q: What about the GI50 (PC-3 prostate) of the same compound?
A: 183 nM

Q: And the TGI (PC-3 prostate)?
A: 13600 nM

Q: And the GI50 (RPMI-8226 leukemia)?
A: 242 nM

Q: And the TGI (RPMI-8226 leukemia)?
A: 2300 nM

Q: What about the GI50 (RXF 393 renal) of the same compound?
A: 612 nM

Q: And the TGI (RXF 393 renal)?
A: 3070 nM

Q: And the GI50 (SF-268 CNS)?
A: 234 nM

Q: What about the TGI (SF-268 CNS) of the same compound?
A: > 30000 nM

Q: What about the GI50 (SF-295 CNS) of the same compound?
A: 105 nM

Q: What about the TGI (SF-295 CNS) of the same compound?
A: 6750 nM

Q: And the GI50 (SF-539 CNS)?
A: 435 nM

Q: What about the TGI (SF-539 CNS) of the same compound?
A: > 9300 nM

Q: What about the GI50 (SK-MEL-2 melanoma) of the same compound?
A: 1130 nM

Q: What about the TGI (SK-MEL-2 melanoma) of the same compound?
A: > 17000 nM

Q: What about the GI50 (SK-MEL-28 melanoma) of the same compound?
A: 567 nM

Q: And the TGI (SK-MEL-28 melanoma)?
A: > 30000 nM

Q: What about the GI50 (SK-MEL-5 melanoma) of the same compound?
A: 398 nM

Q: What about the TGI (SK-MEL-5 melanoma) of the same compound?
A: 5410 nM

Q: And the GI50 (SK-OV-3 ovarian)?
A: 363 nM

Q: And the TGI (SK-OV-3 ovarian)?
A: 14000 nM

Q: What about the GI50 (SN12C renal) of the same compound?
A: 564 nM

Q: What about the TGI (SN12C renal) of the same compound?
A: > 30000 nM

Q: And the GI50 (SNB-19 CNS)?
A: 396 nM

Q: And the TGI (SNB-19 CNS)?
A: > 30000 nM

Q: And the GI50 (SNB-75 CNS)?
A: 316 nM

Q: And the TGI (SNB-75 CNS)?
A: > 25800 nM

Q: And the GI50 (SR leukemia)?
A: 71.1 nM

Q: What about the GI50 (SW-620 colon) of the same compound?
A: 284 nM

Q: What about the TGI (SW-620 colon) of the same compound?
A: > 24100 nM

Q: And the GI50 (T-47D breast)?
A: 301 nM

Q: And the TGI (T-47D breast)?
A: > 18300 nM

Q: What about the GI50 (TK-10 renal) of the same compound?
A: 361 nM

Q: And the TGI (TK-10 renal)?
A: > 19000 nM

Q: And the GI50 (U251 CNS)?
A: 163 nM

Q: What about the TGI (U251 CNS) of the same compound?
A: > 30000 nM

Q: And the GI50 (UACC-257 melanoma)?
A: 712 nM

Q: What about the TGI (UACC-257 melanoma) of the same compound?
A: 8250 nM

Q: What about the GI50 (UACC-62 melanoma) of the same compound?
A: 255 nM

Q: And the TGI (UACC-62 melanoma)?
A: 2490 nM

Q: What about the GI50 (UO-31 renal) of the same compound?
A: 85.6 nM

Q: What about the TGI (UO-31 renal) of the same compound?
A: 4180 nM
